Measured values from ChEMBL document CHEMBL1806412, “Discovery of novel fatty acid synthase (FAS) inhibitors based on the structure of ketoaceyl synthase (KS) domain” (Bioorg Med Chem Lett, 2011).
Activity calls are given as the source filed them. The calls are words filed in the database; no cut-off is given here.

Key:
NCI-H1975 = assay: Growth inhibition of human NCI-H1975 cells at 0.041 to 10 ug/ml after 72 hrs by MTT assay; assay type: functional, cell-based
MDA-MB-468 = assay: Growth inhibition of human MDA-MB-468 cells overexpressing FAS gene after 72 hrs by MTT assay; assay type: functional, cell-based; conditions: MDA-MB-468, 72 h
Fatty acid synthase = Fatty acid synthase (Gallus gallus, UniProt P12276); assay: Inhibition of chicken FAS by spectrophotometric analysis
SW480 = assay: Growth inhibition of human SW480 cells overexpressing FAS gene after 72 hrs by MTT assay; assay type: functional, cell-based; conditions: SW480, 72 h

Sequence of Fatty acid synthase (P12276 whole entry): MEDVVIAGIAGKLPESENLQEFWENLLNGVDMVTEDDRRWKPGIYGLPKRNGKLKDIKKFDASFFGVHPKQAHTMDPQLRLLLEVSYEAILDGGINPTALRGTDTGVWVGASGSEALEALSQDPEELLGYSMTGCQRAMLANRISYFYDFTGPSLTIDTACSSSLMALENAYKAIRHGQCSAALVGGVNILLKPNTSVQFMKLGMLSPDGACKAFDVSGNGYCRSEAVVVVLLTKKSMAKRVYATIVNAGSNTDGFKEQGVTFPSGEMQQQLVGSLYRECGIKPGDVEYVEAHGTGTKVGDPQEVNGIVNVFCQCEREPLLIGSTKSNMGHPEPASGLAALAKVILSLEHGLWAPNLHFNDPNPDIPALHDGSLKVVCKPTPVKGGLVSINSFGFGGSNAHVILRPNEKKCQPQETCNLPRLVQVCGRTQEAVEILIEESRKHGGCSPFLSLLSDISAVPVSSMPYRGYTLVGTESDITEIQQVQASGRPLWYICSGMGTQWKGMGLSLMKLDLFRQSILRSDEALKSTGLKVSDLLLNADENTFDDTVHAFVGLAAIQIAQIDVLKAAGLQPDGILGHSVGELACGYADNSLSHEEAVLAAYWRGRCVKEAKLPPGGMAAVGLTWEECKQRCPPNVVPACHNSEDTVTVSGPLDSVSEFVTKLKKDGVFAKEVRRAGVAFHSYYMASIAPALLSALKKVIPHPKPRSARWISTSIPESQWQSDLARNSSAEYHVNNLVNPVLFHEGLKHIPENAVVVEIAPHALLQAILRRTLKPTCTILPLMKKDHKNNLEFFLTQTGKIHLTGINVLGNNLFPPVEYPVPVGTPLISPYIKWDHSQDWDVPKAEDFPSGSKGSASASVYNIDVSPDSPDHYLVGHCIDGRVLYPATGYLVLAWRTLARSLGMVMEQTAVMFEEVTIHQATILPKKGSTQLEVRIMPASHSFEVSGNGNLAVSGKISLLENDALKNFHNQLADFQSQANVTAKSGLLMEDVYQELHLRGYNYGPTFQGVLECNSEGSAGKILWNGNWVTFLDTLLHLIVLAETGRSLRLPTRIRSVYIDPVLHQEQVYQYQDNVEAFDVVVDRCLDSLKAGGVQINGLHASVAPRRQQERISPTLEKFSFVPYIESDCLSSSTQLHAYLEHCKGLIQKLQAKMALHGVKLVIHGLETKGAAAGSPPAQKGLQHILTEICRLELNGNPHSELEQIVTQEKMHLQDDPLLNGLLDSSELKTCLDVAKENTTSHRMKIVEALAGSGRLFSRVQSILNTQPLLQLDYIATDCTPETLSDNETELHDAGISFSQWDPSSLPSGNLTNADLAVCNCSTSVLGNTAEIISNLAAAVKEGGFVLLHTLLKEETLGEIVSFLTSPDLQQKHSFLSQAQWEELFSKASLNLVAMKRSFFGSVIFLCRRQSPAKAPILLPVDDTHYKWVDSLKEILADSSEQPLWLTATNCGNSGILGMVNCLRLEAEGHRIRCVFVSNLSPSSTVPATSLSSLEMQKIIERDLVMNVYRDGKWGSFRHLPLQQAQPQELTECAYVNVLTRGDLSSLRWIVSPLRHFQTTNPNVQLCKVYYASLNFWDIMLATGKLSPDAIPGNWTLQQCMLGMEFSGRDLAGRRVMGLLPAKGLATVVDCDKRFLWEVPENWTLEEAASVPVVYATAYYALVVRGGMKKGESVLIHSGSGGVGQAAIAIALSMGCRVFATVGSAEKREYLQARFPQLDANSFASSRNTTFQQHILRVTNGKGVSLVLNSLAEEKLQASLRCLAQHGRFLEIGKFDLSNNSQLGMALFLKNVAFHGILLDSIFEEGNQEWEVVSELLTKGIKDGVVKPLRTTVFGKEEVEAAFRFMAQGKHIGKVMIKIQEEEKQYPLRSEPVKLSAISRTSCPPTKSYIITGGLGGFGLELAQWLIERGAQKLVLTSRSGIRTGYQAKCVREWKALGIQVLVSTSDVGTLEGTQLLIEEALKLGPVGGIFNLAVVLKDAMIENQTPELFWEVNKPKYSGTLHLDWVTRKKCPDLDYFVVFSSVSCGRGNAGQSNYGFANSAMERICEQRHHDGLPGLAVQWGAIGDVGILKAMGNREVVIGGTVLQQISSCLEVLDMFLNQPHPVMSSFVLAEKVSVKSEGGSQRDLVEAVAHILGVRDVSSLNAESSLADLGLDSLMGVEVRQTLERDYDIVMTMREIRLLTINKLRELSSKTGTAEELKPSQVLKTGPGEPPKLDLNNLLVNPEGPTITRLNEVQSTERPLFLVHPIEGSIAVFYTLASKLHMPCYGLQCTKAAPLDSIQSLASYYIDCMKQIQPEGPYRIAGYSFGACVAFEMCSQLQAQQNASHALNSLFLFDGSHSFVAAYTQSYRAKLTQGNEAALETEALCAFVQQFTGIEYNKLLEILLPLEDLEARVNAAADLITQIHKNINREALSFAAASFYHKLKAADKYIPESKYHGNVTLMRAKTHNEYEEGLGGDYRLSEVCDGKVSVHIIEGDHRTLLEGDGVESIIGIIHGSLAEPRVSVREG

SMILES | inhibition (NCI-H1975) | IC50 (MDA-MB-468) | IC50 (Fatty acid synthase) | IC50 (SW480)
CC1=C(C(=O)Nc2ccccn2)C(c2ccc(Br)cc2)NC(S)=N1 (configuration not stated) | inactive | 8.4 µM | – | –
O=[N+]([O-])c1cccc(-c2csc(N/N=C\c3ccccn3)n2)c1 | inactive | 8.3 µM | 12.7 µM | 1.5 µM
CC1=C(C(=O)Nc2ccc(Cl)cc2)C(c2cc(Br)ccc2O)NC(=S)N1 (configuration not stated) | inactive | – | – | 14.2 µM
CC1=NC2N=NNN2[C@@H](c2ccc(OCc3ccccc3)cc2)C1C(=O)Nc1ccccc1 (some centres not stated) | inactive | 19.3 µM | – | 11.1 µM
COc1cc(OC)c([C@H]2NC(=S)NC(C)=C2C(=O)Nc2ccccc2Cl)cc1OC | inactive | – | – | 7.5 µM
CC1=C(C(=O)Nc2ccccc2)[C@@H](c2ccc(OCc3ccccc3)cc2)n2ncnc2N1 | inactive | – | – | 19.9 µM
CCn1c(SCC(=O)Nc2cc(Cl)ccc2Cl)nnc1C(C)(C)NC(=O)c1cccc(C)c1 | inactive | – | – | 14.7 µM
